# Measured values taken from patent US12527779B2, “Prostaglandin E2 (PGE2) EP4 receptor antagonists” (Domain Therapeutics, priority 2019, dated 2026).
# Counter-ions that a name gives are not always drawn.
# Molecular target: T1, human EP4 (hEP4) receptor (Homo sapiens, UniProt P35408)
# T1 construct: expressed in transfected cells; host or cells: HEK-293 T cells, transient co-transfection with polyethylenimine
# Test: In vitro human EP4 functional antagonist activity using BRET biosensors (cAMP EPAC biosensor, TCS2510 stimulation)
# Format: cell-based
# Details: antagonist activity vs EC60 TCS2510, hEP4 in HEK-293 T cells
# Experimental: Examples of the present invention were tested successively for their agonist and antagonist activities on human EP4 (hEP4) receptor transiently over-expressed in HEK-293 T cells. […] The assay used to measure compound activity is based on the BRET technology. The unimolecular cAMP biosensor used to detect intracellular cAMP levels following GPCR stimulation consists of the EPAC protein fused to N- and C-terminal of Luciferase and GFP respectively.
# Cell Culture and Transfection: HEK-293 T cells are maintained in Dulbecco's Modified Eagle's Medium supplemented with 10% Foetal Calf Serum, 1% Penicillin/Streptomycin at 37° C./5% CO2. Cells are co-transfected using polyethylenimine (25 kDa linear) with two DNA plasmids encoding hEP4, EPAC fused to luciferase (BRET donor) and to GFP (BRET acceptor). After transfection, cells are cultured (40,000 cells per well) for 48 h at 37° C./5% CO2.
# BRET assay: Receptor activity is detected by changes in BRET signal. On the day of the assay, cells are rinsed and incubated in assay buffer (1.8 mM CaCl2, 1 mM MgCl2, 2.7 mM KCl, 137 mM NaCl, 0.4 mM NaH2PO4, 5.5 mM D-Glucose, 11.9 mM NaHCO3, 25 mM Hepes). Then, plates are equilibrated 1 h at 22° C. before adding compounds. Compounds and luciferase substrate are added to the cells using an automated device (Freedom Evo®, Tecan) and BRET readings are collected on EnVision (PerkinElmer) with specific filters (410 nm BW 80 nm, 515 nm BW 30 nm). Agonist and antagonist activities of compounds are consecutively evaluated on the same cell plate. Agonist activity is first measured after 5 min incubation with compound alone on the cells. Then, cells are stimulated by an EC60 TCS2510 concentration and luminescence is recorded for additional 10 min. EC60 TCS2510 concentration is the concentration giving 60% of the maximal TCS2510 response. Agonist or antagonist activities are evaluated in comparison to basal signals evoked by assay buffer or EC60 TCS2510 alone, respectively.
# For IC50 determination, a dose-response test is performed using 10 concentrations (ranging over 4.5 logs) of each compound. Dose-response curves are fitted using the sigmoidal dose-response (variable slope) analysis in GraphPad Prism software (GraphPad Software) and IC50 of antagonist activity is calculated. Dose-response experiments are performed in duplicate, in two independent experiments. IC50 values are categorized as following: A: IC50<0.1 μM; B: IC50<1 μM.
# T1 sequence (P35408 whole entry): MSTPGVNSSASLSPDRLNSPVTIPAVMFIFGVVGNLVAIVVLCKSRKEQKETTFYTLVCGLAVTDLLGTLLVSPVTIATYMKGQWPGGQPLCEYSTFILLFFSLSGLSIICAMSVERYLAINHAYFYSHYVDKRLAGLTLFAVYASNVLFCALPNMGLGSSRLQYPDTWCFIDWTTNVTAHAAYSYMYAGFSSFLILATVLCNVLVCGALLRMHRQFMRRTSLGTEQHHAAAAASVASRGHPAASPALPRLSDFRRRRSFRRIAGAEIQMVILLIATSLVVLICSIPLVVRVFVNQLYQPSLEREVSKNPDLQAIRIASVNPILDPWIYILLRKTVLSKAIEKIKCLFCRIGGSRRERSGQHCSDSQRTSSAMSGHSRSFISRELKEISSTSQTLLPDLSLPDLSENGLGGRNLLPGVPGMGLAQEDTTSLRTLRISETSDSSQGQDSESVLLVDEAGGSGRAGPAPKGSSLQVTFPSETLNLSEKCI
row,IC50 [nM],SMILES
1,< 1000,"C[C@H](NC(=O)C1(N2CC[C@@H](Oc3cccc(C(F)(F)F)c3)C2)CCOCC1)c1cccnc1 [Example 185, N—((S)-1-(Pyridin-3-yl)ethyl)-4-((R)-3-(3-(trifluoromethyl)phenoxy)pyrrolidin-1-yl)tetrahydro-2H-pyran-4-carboxamide, hydrochloride]"
2,< 1000,"CN(CCOc1ccc(Cl)cc1)C1(C(=O)NC2(c3ccc(C(=O)O)cc3)CC2)CCOCC1 [Example 31, 4-[1-[[4-[2-(4-Chlorophenoxy)ethyl-methyl-amino]tetrahydropyran-4-carbonyl]amino]cyclopropyl]benzoic acid, hydrochloride]"
3,< 100,"C[C@H](NC(=O)C1(N2CC[C@@H](Oc3cccc(C(F)(F)F)c3)C2)CCOCC1)c1ccc(-c2cn[nH]c2)cc1 [Example 176, N—((S)-1-(4-(1H-Pyrazol-4-yl)phenyl)ethyl)-4-((R)-3-(3-(trifluoromethyl)phenoxy)pyrrolidin-1-yl)tetrahydro-2H-pyran-4-carboxamide, hydrochloride]"
4,< 1000,"COc1ccc(OCCN(C)C2(C(=O)NC3(c4ccc(C(=O)O)cc4)CC3)CCOCC2)cc1 [Example 40, 4-[1-[[4-[2-(4-Methoxyphenoxy)ethyl-methyl-amino]tetrahydropyran-4-carbonyl]amino]cyclopropyl]benzoic acid, hydrochloride]"
5,< 100,"C[C@H](NC(=O)C1(N2CCC[C@@H](Oc3cccc(Cl)c3)C2)CCOCC1)c1ccc(C(=O)O)cc1 [Example 136, 4-[(1S)-1-[[4-[(3R)-3-(3-Chlorophenoxy)-1-piperidyl]tetrahydropyran-4-carbonyl]amino]ethyl]benzoic acid, hydrochloride]"
6,< 100,"C[C@H](NC(=O)C1(NCCOc2cccc(Cl)c2)CCCCC1)c1ccc(C(=O)O)cc1 [Example 56, 4-[(1S)-1-[[1-[2-(3-Chlorophenoxy)ethylamino]cyclohexanecarbonyl]amino]ethyl]benzoic acid, hydrochloride]"
7,< 1000,"CN(CCOc1ccccc1C(F)(F)F)C1(C(=O)NC2(c3ccc(C(=O)O)cc3)CC2)CCOCC1 [Example 42, 4-[1-[[4-[2-(2-Trifluoromethylphenoxy)ethyl-methyl-amino]tetrahydropyran-4-carbonyl]amino]cyclopropyl]benzoic acid, hydrochloride]"
8,< 1000,"C[C@H](NC(=O)C1(N2CC[C@@H](Oc3cccc(C(F)(F)F)c3)C2)CCOCC1)c1ccccn1 [Example 186, N—((S)-1-(Pyridin-2-yl)ethyl)-4-((R)-3-(3-(trifluoromethyl)phenoxy)pyrrolidin-1-yl)tetrahydro-2H-pyran-4-carboxamide, hydrochloride]"
9,< 1000,"C[C@H](NC(=O)C1(c2cccc(OCCC3CCCCC3)c2)CCOCC1)c1ccc(C(=O)O)cc1 [Example 105, 4-[(1S)-1-[[4-[3-(2-Cyclohexylethoxy)phenyl]tetrahydropyran-4-carbonyl]amino]ethyl]benzoic acid]"
10,< 1000,C[C@H](NC(=O)C1(c2ccc(OCCc3ccccc3)cc2)CCOCC1)c1ccc(C(=O)O)cc1 [Example 94]
11,< 100,"C[C@H](NC(=O)C1(N2CC[C@@H](Oc3cccc(C(F)(F)F)c3)C2)CCC1)c1ccc(C(=O)O)cc1 [Example 165, 4-[(1S)-1-[[1-[(3R)-3-[3-(Trifluoromethyl)phenoxy]pyrrolidin-1-yl]cyclobutane-1-carbonyl]amino]ethyl]benzoic acid, hydrochloride]"
12,< 100,"C[C@H](NC(=O)C1(N2CC[C@@H](Oc3cccc(Cl)c3)C2)CCC(F)(F)CC1)c1ccc(C(=O)O)cc1 [Example 156, 4-[(1S)-1-[[1-[(3R)-3-(3-Chlorophenoxy)pyrrolidin-1-yl]-4,4-difluorocyclohexane-1-carbonyl]amino]ethyl]benzoic acid, hydrochloride]"
13,< 1000,"CN(CCOc1ccccc1)C1(C(=O)NC2(c3ccc(C(=O)O)nc3)CC2)CCOCC1 [Example 53, 5-[1-[[4-[Methyl(2-phenoxyethyl)amino]tetrahydropyran-4-carbonyl]amino]cyclopropyl]pyridine-2-carboxylic acid, hydrochloride]"
14,< 100,"C[C@H](NC(=O)C1(c2ccc(OCc3ccccc3)cc2)CCCC1)c1ccc(C(=O)O)cc1 [Example 109, 4-[(1S)-1-[[1-(4-Benzyloxyphenyl)cyclopentanecarbonyl]amino]ethyl]benzoic acid]"
15,< 1000,"C[C@H](NC(=O)C(C)(C)N1CC[C@@H](Oc2cccc(C(F)(F)F)c2)C1)c1ccc(S(N)(=O)=O)cc1 [Example 203, 2-Methyl-N—((S)-1-(4-sulfamoylphenyl)ethyl)-2-((R)-3-(3-(trifluoromethyl)phenoxy)pyrrolidin-1-yl)propanamide, hydrochloride]"
16,< 100,"O=C(O)c1ccc(C2(NC(=O)C3(N4CC[C@@H](Oc5cccc(Cl)c5)C4)CCOCC3)CC2)cc1 [Example 141, 4-[1-[[4-[(3R)-3-(3-Chlorophenoxy)pyrrolidin-1-yl]tetrahydropyran-4-carbonyl]amino]cyclopropyl]benzoic acid, hydrochloride]"
17,< 1000,"C[C@H](NC(=O)C1(N2CC[C@@H](Oc3cccc(C(F)(F)F)c3)C2)CCOCC1)c1ccc(Br)cc1 [Example 190, N—((S)-1-(4-Bromophenyl)ethyl)-4-((R)-3-(3-(trifluoromethyl)phenoxy)pyrrolidin-1-yl)tetrahydro-2H-pyran-4-carboxamide, hydrochloride]"
18,< 1000,"C[C@H](NC(=O)C1(c2ccc(OCCC3CCCCC3)cn2)CCOCC1)c1ccc(C(=O)O)cc1 [Example 120, 4-[(1S)-1-[[4-[5-(2-Cyclohexylethoxy)-2-pyridyl]tetrahydropyran-4-carbonyl]amino]ethyl]benzoic acid]"
19,< 1000,"C[C@H](NC(=O)C1(c2ccc(OCCC3CCCCC3)nc2)CCCC1)c1ccc(C(=O)O)cc1 [Example 130, 4-[(1S)-1-[[1-[6-(2-Cyclohexylethoxy)-3-pyridyl]cyclopentanecarbonyl]amino]ethyl]benzoic acid]"
20,< 100,"C[C@H](NC(=O)C1(N2CC[C@@H](Oc3cccc(C(F)(F)F)c3)C2)CCC1)c1ccc(C(N)=O)cc1 [Example 171, 4-[(1S)-1-[[1-[(3R)-3-[3-(Trifluoromethyl)phenoxy]pyrrolidin-1-yl]cyclobutane-1-carbonyl]amino]ethyl]benzamide, hydrochloride]"
21,< 1000,"C[C@H](NC(=O)C1(N2CC[C@@H](Oc3cccc(C(F)(F)F)c3)C2)CCOCC1)c1cccc(F)c1 [Example 188, N—((S)-1-(3-Fluorophenyl)ethyl)-4-((R)-3-(3-(trifluoromethyl)phenoxy)pyrrolidin-1-yl)tetrahydro-2H-pyran-4-carboxamide, hydrochloride]"
22,< 100,"CN(CCOc1ccccc1F)C1(C(=O)NC2(c3ccc(C(=O)O)cc3)CC2)CCOCC1 [Example 33, 4-[1-[[4-[2-(2-Fluorophenoxy)ethyl-methyl-amino]tetrahydropyran-4-carbonyl]amino]cyclopropyl]benzoic acid, hydrochloride]"
23,< 100,"COc1cccc(OCCNC2(C(=O)N[C@@H](C)c3ccc(C(=O)O)cc3)CCOCC2)c1 [Example 13, 4-[(1S)-1-[[4-[2-[3-Methoxyphenoxy]ethylamino]tetrahydropyran-4-carbonyl]amino]ethyl]benzoic acid, hydrochloride]"
24,< 1000,"CNC(=O)c1ccc([C@H](C)NC(=O)C2(N(C)CCOc3ccccc3)CCOCC2)cc1 [Example 4, N-[(1S)-1-[4-(Methylcarbamoyl)phenyl]ethyl]-4-[methyl(2-phenoxyethyl)amino]tetrahydropyran-4-carboxamide]"
25,< 1000,"C[C@H](NC(=O)C1(N(C)CCOc2ccccc2)CCCOC1)c1ccc(C(=O)O)cc1 (stereo partly drawn) [Example 73, 4-[(1S)-1-[[3-[Methyl(2-phenoxyethyl)amino]tetrahydropyran-3-carbonyl]amino]ethyl]benzoic acid, hydrochloride]"
26,< 100,"CCC(CC)(C(=O)N[C@@H](C)c1ccc(C(=O)O)cc1)N1CC[C@@H](Oc2cccc(Cl)c2)C1 [Example 210, 4-[(1S)-1-[[2-[(3R)-3-(3-Chlorophenoxy)pyrrolidin-1-yl]-2-ethylbutane-carbonyl]amino]ethyl]benzoic acid, hydrochloride]"
27,< 1000,"C[C@H](NC(=O)C1(NCCOc2ccc(Cl)c(Cl)c2)CCOCC1)c1ccc(C(=O)O)cc1 [Example 17, 4-[(1S)-1-[[4-[2-(3,4-Dichlorophenoxy)ethylamino]tetrahydropyran-4-carbonyl]amino]ethyl]benzoic acid, hydrochloride]"
